The values below come from patent US20130035390A1, “TREATMENT OF MULTIPLE SCLEROSIS” (Ramot at Tel-Aviv University Ltd., priority 2010, published 2013).

Assay [1] deals with lymphocytes from the spleens of EAE mice. Nature of the assay: Ex vivo BrdU proliferation response of EAE splenocytes to antigens and mitogens. As to conditions: in vivo FTS 20 mg/kg/day i.p., GA 15 mg/kg/day s.c. It counts as cell-based. As for the experimental part:
Pooled single cell suspension of spleens were obtained on […] post-EAE induction and assayed in vitro for their response to antigens and mitogens ([…], lipopolysacharide—LPS, and concanavalin A—ConA) by a proliferation assay. The assay was carried out by plating in each microculture well 2×10^4 cells in 0.1 ml of proliferation medium containing optimal concentration of antigens as follows: 25 μg/ml MOG, 50 μg/ml MOG, 20 μg/ml LPS or 1 μg/ml of ConA. The experiments were performed in triplicate in 96-well, flat-bottom, microtiter plates (Costar, Cambridge, USA). Cultures were incubated for 72 h in humidified atmosphere of 95% air and 5% CO2 at 37° C. Cell proliferation was determined by Colorimetric Bromodeoxyuridine (BrdU) Cell Proliferation kit (Calbiochem, Darmstadt, Germany) following manufacturer's instructions. In brief, 20 μl of BrdU labeling solution diluted 1:2000 in culture medium were added to each well for the last 18 h of culture. After removing the medium, cells were fixed, and anti-BrdU peroxidase working solution was added to each well and incubated for one (1) hour at room temperature. Following several washes, substrate solution was added, color was developed, and absorbance was measured with a microplate reader at 450 nm. The stimulation index (S.I.) was calculated as follows: the mean absorbance of cells culture in the presence of antigen divided by the mean absorbance of cells in the absence of antigen.
Lymphocytes were obtained from the spleens of mice on day 16 post immunization with MOG and subjected to ex vivo BrdU incorporation proliferation assays. […] The cells, obtained from the four groups described above, were stimulated with various mitogens ex vivo for 48 h.

The test system of assay [2] is Foxp3. The assay is described as follows: Western blotting of splenocyte lysates: Foxp3. It counts as in vivo, mice. The conditions noted are these: day 17 post EAE-induction; FTS 20 mg/kg/day i.p., GA 15 mg/kg/day s.c.
From the text: (§1) On day 16 post EAE-induction, the brains and splenocytes of the mice (n=4 per each group) were homogenized and their lysates were subjected to sodium dodecyl sulfate-olyacrylamide gel electrophoresis followed by western blotting, as described (Goldberg and Kloog, 2006), with one of the following antibodies: pan-RAS (Ab-3; Calbiochem, San Diego, Calif.), anti-CD3 Ab (AbD serotec, Oxford, UK), anti-ERK (Santa Cruz Biotechnology, CA. USA), anti phospho-ERK (Sigma, USA), anti-tubulin Ab and anti-Foxp3 Ab (eBioScience, San Diego, Calif.). Protein bands were visualized by enhanced chemiluminescence (ECL) kit (Amersham Pharmacia Biotech, Arlington Heights, Ill.) and quantified by densitometry with Image EZQuant-Gel software (Copyright©2005, EZQuant Ltd). Lysates were used to determine Ras-GTP by the glutathione S-transferase (GST)-Ras-binding domain pulldown assay, and this was followed by western blotting with anti pan-Ras Ab.
For assay [3], the system named is infiltration and demyelination in the spinal cords of EAE mice. The assay is described as follows: Histology of lumbar spinal cord (H&E, LFB). It is filed as in vivo, C57bl/6 mice. As to conditions: day 16 post EAE-induction; FTS 20 mg/kg/day i.p., GA 15 mg/kg/day s.c. The text has this: The lumbar part of the mice's spinal cord (n=8 mice for each group) was fixed in 4% paraformaldehyde (Electric Microscopy Science, PA, USA) and embedded in paraffin and cut in 4-μm-thick axial sections. Sections were stained with hematoxylin and eosin (H&E) and luxol fast blue (LFB) and then mounted in histomount medium (Invitrogen Corporation, CA, USA). Images were examined under a light microscope and captured with a NikonDS-5Mcamera (NikonInstech, Tokyo, Japan). Quantification of the inflammation and demyelination was conducted as previously described (Mi, et al., 2007). Briefly, to quantify inflammation H&E-stained nuclei were imaged, counted and percentage of stained cells per field were calculated. Similarly the percentage of regions with demyelination per field was estimated by counting the LFB-stained images. Imaging was aided by the use of Image-Pro Plus 5.1 software (MediaCybernetics, Silver, Spring, Md.).

Assay [4] has as its system EAE mice. Nature of the assay: Clinical signs of MOG-induced EAE, late treatment from day 9. It counts as in vivo, C57bl/6 mice. As to conditions: for percent of the maximal response: score difference relative to control score 2.4. Here is the method:
Eight-week-old female C57bl/6 mice were purchased from Harlan. The mice were housed under standard conditions in top filtered cages. Mice were fed a regular diet and given acidified water without antibiotics.
Disease was induced by immunization with the peptide encompassing amino acids 35-55 of rat MOG synthesis (Anaspec, Fremont, Calif.). Mice were injected subcutaneously (s.c.) at the flank, with a 200 μl emulsion containing 300 μg of MOG in complete Freund's adjuvant (CFA) enriched with 500 μg Mycobacterium tuberculosis H37Ra (Difco Laboratories, Detroit, Mich.). Pertussis toxin (List biological laboratories, California, USA), […], was injected intra-peritoneally (i.p.) immediately after the MOG injection and then 48 h later. Mice were examined daily. EAE was scored as follows: 0, no abnormality; 1, mild limp tail weakness (floppy tail); 2, tail paralysis; 3, tail paralysis and hind leg paresis; 4, hind leg paralysis or mild forelimb weakness; 5, quadriplegia or moribund state; 6, death.
Briefly, FTS (as powder) was diluted in chloroform (35.8 mg/ml of FTS=0.1 M) and kept in aliquots. The content (280 μl) of one aliquot was evaporated under nitrogen and then dissolved in 40 μl absolute ethanol and 15 μl NaOH; 2.5 ml of PBS was subsequently added. Each mouse received 0.1 ml of this solution daily (0.4 mg/mouse which on a per unit weight basis equates to 20 mg/kg) intraperitoneally (i.p.), starting from day 9 of disease induction, just before the clinical onset of paralysis.
EAE was induced in C57bl/6 mice with MOG and drug treatment started on day 9 of disease induction. The animals were divided into four (4) groups.

The subject of assay [5] is phospho-Erk. The assay is described as follows: Western blotting of splenocyte lysates: phospho-Erk. It is filed as in vivo, mice. The conditions noted are these: FTS 20 mg/kg/day i.p., GA 15 mg/kg/day s.c. For orientation: Immunoblotting shows a protein as a band on a membrane.
From the text: as §1
For assay [6], the system named is EAE lesions and blood-brain barrier disruption in the spinal cord. The assay is described as follows: MR imaging of spinal cord (L1-S3) of EAE mice, T2-map and Gd-DTPA T1-weighted. It counts as in vivo, C57bl/6 mice. The conditions noted are these: day 14 post EAE-induction; FTS 20 mg/kg/day i.p., GA 15 mg/kg/day s.c.; FIG. 2C.
Method: The treatment effect was evaluated by MRI experiments which were conducted on day 14 after EAE-induction. […] During the MRI scanning, mice were anesthetized with isofluorane (3% for induction, 1-2% for maintenance) mixed with compressed air (1 l/min) delivered through a nasal mask. Once anesthetized, the animals were placed in a body-holder to assure reproducible positioning inside the magnet. Respiration rate was monitored and maintained throughout the experimental period at 60-80 breaths/min. MRI experiments were performed on a 7T Bruker scanner (70/30 USR Bruker BioSpec, Germany) equipped with a gradient coil system capable of producing pulse gradients of up to 400 mT/m in each of the three directions. […]
T2-map MRI was used to deliberate the EAE lesions (demyelination) in the mice's spinal cords. Lesion volume was calculated from the T2-map MR images using the MATLAB® image processing toolbox. […] From that value was then subtracted the value of a normal appearing parallel tissue in the same slice which was measured in the same way as described above. […]
The gadolinium enhancement obtained from T1-weighted MRI reflects the infusate distribution in the mice's blood-brain barrier within the spinal cord. Thus, the volume (in mm^3) of infusate distribution was calculated from the T1-weighted MRI. […] The volume in the regions of interest was counted and accumulated for each mouse.
Assay [7] has as its system Ras. Nature of the assay: Western blotting of splenocyte lysates: Ras. It is filed as in vivo, mice. As to conditions: FTS 20 mg/kg/day i.p., GA 15 mg/kg/day s.c.
From the text: as §1
Setting [8] is: 0-6 scale, FTS 20 mg/kg/day i.p., GA 100 mg/kg/day s.c., daily from day 9, FIG. 1A.
Setting [9] is: Example II: 0-6 scale, FTS 60 mg/kg/day p.o., GA 15 mg/kg/day s.c., FIG. 7A.
Setting [10] is: Example II: FTS 60 mg/kg/day p.o., GA 15 mg/kg/day s.c., daily from day 9.
Setting [11] is: FTS 20 mg/kg/day i.p., GA 15 mg/kg/day s.c.
The mark [12] stands for this setting: FTS 20 mg/kg/day i.p., GA 15 mg/kg/day s.c., daily from day 9, four experiments.
Where [13] appears, read: FTS 20 mg/kg/day i.p., GA 100 mg/kg/day s.c., daily from day 9, three experiments.

`CC(C)=CCC/C(C)=C/CC/C(C)=C/CSc1ccccc1C(=O)O` [FTS, S-trans,trans-farnesylthiosalicylic acid]: the “decrease in lymphocyte proliferation vs. control” value is reported as 17.85%±5.34% in assay [1] (stimulated with 25 μg/ml MOG) and 29.9%±9.18% in assay [1] (stimulated with 50 μg/ml MOG). The “increase of Foxp3 level in splenocytes vs. control” value in assay [2] is given as “No significant elevation”. For the same compound, the “decrease in regions of demyelination (LFB) vs. control” value in assay [3] came out at 59.18±10.6%. Also, the “reduction of regions with inflammatory infiltrates (H&E nuclei counts) vs. control” value in assay [3] is 28.44%±11.2%. The “maximal average clinical score” value in assay [4] (0-6 scale, FTS 20 mg/kg/day i.p., GA 15 mg/kg/day s.c., daily from day 9, FIG. 1B) is on record as 2.15±0.45; in assay [4] (setting [8]), 1.07±0.6; in assay [4] (setting [9]), 1±0.33; in assay [4] (Example III: 0-6 scale, FTS 40 mg/kg/day s.c. (dissolved in GA in the combination), GA 15 mg/kg/day s.c., FIG. 7B), 1.72±0.45. The “animals that developed clinical signs of EAE” value in assay [4] (setting [10]) was 60%; in assay [4] (Example III: FTS 40 mg/kg/day s.c. (dissolved in GA in the combination), GA 15 mg/kg/day s.c., daily from day 9), 90%; in assay [4] (setting [12]), 82.5%; in assay [4] (setting [13]) it was 60.7%. The “clinical score as control score (2.4) minus treated score” value in assay [4] (setting [11]) was determined as 0.25±0.11. Also, in assay [4] (setting [11]), the “percent of the maximal response” value is recorded as 25%. Also, the “decrease in phospho-Erk level in splenocytes vs. GA alone” value in assay [5] was 51.38%±5.6%. Besides, the “decrease in phospho-Erk level in splenocytes vs. control” value in assay [5] was 50.18%±9.1%. In assay [6], the “decrease in total volume of T2-map lesions per mouse vs. control” value was 30.1%±7%.
Turning to “L-glutamic acid polymer with L-alanine, L-lysine and L-tyrosine, acetate (salt) [GA]”, the “decrease in lymphocyte proliferation vs. control” value in assay [1] (stimulated with 25 μg/ml MOG) was 43.19%±6.35%; in assay [1] (stimulated with 50 μg/ml MOG) it was 41.22%±6.12%. Further, in assay [2], the “increase of Foxp3 level in splenocytes vs. control” value is “No significant elevation”. The “decrease in regions of demyelination (LFB) vs. control” value in assay [3] is listed as 48.97%±6.78%. The “reduction of regions with inflammatory infiltrates (H&E nuclei counts) vs. control” value in assay [3] was 33.12%±6.98%. The “maximal average clinical score” value in assay [4] (setting [8]) is given as 1.4±0.43; in assay [4] (setting [9]), 1.3±0.213. For the same compound, the “animals that developed clinical signs of EAE” value is 70% in assay [4] (setting [10]), 77.5% in assay [4] (setting [12]) and 70.3% in assay [4] (setting [13]). Further, the “clinical score as control score (2.4) minus treated score” value in assay [4] (setting [11]) is on record as 0.02±0.05. In addition, the “percent of the maximal response” value in assay [4] (setting [11]) is listed as 2%. Also, in assay [5], the “decrease in phospho-Erk level in splenocytes vs. control” value is recorded as “does not reduce significantly”. The “decrease in Ras level in splenocytes vs. control” value in assay [7] was “does not reduce significantly”.
